Marks after values point to notes of the source that are not given here.
Assays:
SD rats [1] = test: Effect on sleep in SD rats by electroencephalogram/electromyography telemetry; type: in vivo; conditions: SD rat EEG, Mean±SEM; for Sleep latency: blank vehicle 32 ± 3.1; for NREM sleep time within 7 h after administration: blank vehicle 102 ± 18; for Total awake time within 7 h after administration: blank vehicle 303 ± 20
Protocol: Test purpose: to evaluate the effect of test substance on sleep in SD rats by electroencephalogram/electromyography telemetry (EEG).
Test scheme: 36 male SD rats aged 5-6 weeks needed an adaptation period of 5-15 days after arriving at the facility, during which the experimental animals were placed in an alternating light and dark environment for 12 h for adaptation (light on: 19:00; light off: 07:00) to adjust the rhythm time, and the health of the animals was monitored every day. Animals needed to be surgically implanted with electroencephalogram electrode and electromyography electrode for later telemetry data collection. On the day of the operation experiment, the animals were anesthetized with Zoletil (i.p., 20 mg/kg) combined with xylazine (i.p., 8 mg/kg). After anesthesia, the animals were fixed by brain stereotaxic apparatus. After the head has hair clipped and was disinfected, the skin of the head was cut, and the four corners were clamped with hemostats to fully expose the skull. The periosteum was peeled off and wiped with dry absorbent cotton until the surface was clean. A hole was drilled according to the type of implanter, and an electrode was implanted and in contact with the dura mater. The electrode was fixed on the skull with dental cement. At the same time, the cement dripping on the tissue and skin was cleaned up. The 2 electromyography electrodes were respectively inserted into the neck muscles in parallel, and the two ends were fixed with sutures to prevent their ends from touching each other. The implanter was then placed under the skin, and the surgical wound was sutured and sterilized. After the operation, the rats were carefully placed in a clean recovery cage, lying on their sides to ensure a smooth airway. The rats were raised in a single cage and placed in a shielded recovery room, in which the light and dark automatically alternated for 12 h (light on: 19:00, light off: 07:00), the temperature was 20-26° C., and the relative humidity was 40-70%. After the operation, the animals were given nursing care for 3 days. The surgical incision was treated with cephradine powder locally, gentamicin at 4-8 mg/kg was subcutaneously administered, and meloxicam at 0.1 mL/rat was injected subcutaneously for 3 consecutive days. The experiment was carried out after 7-10 days of recovery and the animals were randomly divided into groups according to their weight the day before the experiment.
On the day of the experiment, the basic electroencephalogram and electromyography were recorded first, and then the administration began. During and after the administration, the electroencephalogram and electromyography were recorded continuously until 24 h after the administration. Raw data were collected by DSI system Ponemah software and analyzed by NeuroScore software. The experimental data were represented by the mean±standard error (Mean±SEM), and statistical analysis was performed using the one-way variance method. Compared with the blank vehicle group, P<0.05 indicated a significant difference, and represented as *; P<0.01 indicated a very significant difference, and represented as **; P<0.001 indicated an extremely significant difference, and represented as ***.

SD rats [2] = test: Effect on spontaneous activities of SD rats; type: in vivo; conditions: SD rat, 30 mg/kg, recorded 60 min from 30 minutes after administration, Mean±SEM; blank vehicle 31.91 ± 3.92
Protocol: Test purpose: to judge the effect of the test compound on the activity of rats by measuring the spontaneous activity distance of rats in a period of time.
Test scheme: 12 male SD rats aged 7 weeks were adapted in the laboratory 1 day before the start of the test. On the day of the experiment, the rats were randomly divided into 2 groups according to their body weight, with 6 rats in each group, and the rats were given blank vehicle and compound 8 (30 mg/kg), respectively. The animals were put into a test box 30 minutes after administration, and the distance data of animal activity were recorded every 5 min with Any-maze software, and the recording was continued for 60 min. By comparing the total distance of animal activity within the recording time, it is judged whether the drug has a significant effect on the spontaneous activity of the animal. The experimental data were represented by the mean±[…] (Mean±SEM). The statistical method adopted one-way analysis of variance plus Dunnett's multiple comparisons. P<0.05 was represented as *, p<0.01 was represented as **, and p<0.001 was represented as ***.

SMILES: COc1ccc(-n2nccn2)c(C(=O)N2C(c3nc4ccc(OC)cc4[nH]3)CC3CC32)c1 (stereo not shown) [Compound 8]
- Sleep latency (SD rats [1]; 5 mg/kg): 27 ± 8.1 min
- NREM sleep time within 7 h after administration (SD rats [1]; 5 mg/kg): 129 ± 17 min
- Total awake time within 7 h after administration (SD rats [1]; 5 mg/kg): 274 ± 19 min
- Sleep latency (SD rats [1]; 10 mg/kg): 15 ± 2.9** min
- NREM sleep time within 7 h after administration (SD rats [1]; 10 mg/kg): 144 ± 16 min
- Total awake time within 7 h after administration (SD rats [1]; 10 mg/kg): 250 ± 21 min
- Sleep latency (SD rats [1]; 30 mg/kg): 7 ± 1.3*** min
- NREM sleep time within 7 h after administration (SD rats [1]; 30 mg/kg): 171 ± 11** min
- Total awake time within 7 h after administration (SD rats [1]; 30 mg/kg): 228 ± 12* min
- Spontaneous activity distance (SD rats [2]): 14.73 ± 1.38 meters

From patent publication US12583841B2, “Tetrahydropyrrolocyclic compound and application thereof” (Breakthrough Pharmaceuticals Inc., priority 2021, dated 2026)
